Activity calls are given as the source filed them. The calls are words filed in the database; no cut-off is given here.
How the values were obtained:
[1] = Inhibition of Baker's yeast alpha-glucosidase using pNGP as substrate after 30 mins by spectrophotometric analysis; set-up: species or system Saccharomyces cerevisiae
Saccharomyces cerevisiae [2] = test: Binding affinity to Baker's yeast alpha-glucosidase at 5 to 50 uM after 30 mins by tryptophan fluorescence spectrophotometric method
Saccharomyces cerevisiae [3] = test: Binding affinity to Baker's yeast alpha-glucosidase assessed as reduction in enzyme surface hydrophobicity after 30 mins by Bis-ANS dye based spectrofluorometric method
Saccharomyces cerevisiae [4] = test: Irreversible inhibition of Baker's yeast alpha-glucosidase at 20 uM after 24 hrs by dialysis method
Saccharomyces cerevisiae [5] = test: […] inhibition of Baker's yeast alpha-glucosidase at 0.5 to 1 uM after 30 mins by Lineweaver-Burk plot method
Saccharomyces cerevisiae [6] = test: Binding affinity to Baker's yeast alpha-glucosidase after 30 mins by tryptophan fluorescence spectrophotometric method
Saccharomyces cerevisiae [7] = test: Mixed type inhibition of Baker's yeast alpha-glucosidase at 1 to 1.5 uM using varying pNGP substrate levels preincubated for 30 mins followed by substrate addition by Lineweaver-Burk plot method
Saccharomyces cerevisiae [8] = test: Potency index, ratio of acarbose IC50 to compound IC50 for inhibition of Baker's yeast alpha-glucosidase

SMILES	IC50 [1]	further results
COC(=O)CC1Oc2ccccc2-c2cc3c(c(C)c21)N(C)C(=O)C3=O (stereo not drawn)	18.5 µM	–
CNC(=O)CC1Oc2ccccc2-c2ccc3c(c21)C(=O)C(=O)N3Cc1ccc(C(F)(F)F)cc1 (stereo not drawn)	11.8 µM	–
CN(C)CCNC(=O)CC1Oc2ccccc2-c2ccc3c(c21)C(=O)C(=O)N3Cc1ccc(C(F)(F)F)cc1 (stereo not drawn)	162 µM	–
Cc1c2c(cc3c1N(C)C(=O)C3=O)-c1ccccc1OC2CC(=O)Nc1ccc(-c2ccc(N)cc2)cc1 (stereo not drawn)	5.2 µM	–
COC(=O)CC1Nc2ccccc2-c2ccc3c(c21)C(=O)C(=O)N3Cc1ccc(OC)cc1 (stereo not drawn)	45.3 µM	–
COC(=O)CC1Nc2ccccc2-c2ccc3c(c21)C(=O)C(=O)N3C (stereo not drawn)	287 µM	–
O=C(CC1Oc2ccccc2-c2ccc3c(c21)C(=O)C(=O)N3Cc1ccc(C(F)(F)F)cc1)Nc1ccccc1 (stereo not drawn)	4 µM	–
Nc1ccc(-c2ccc(NC(=O)CC3Oc4ccccc4-c4ccc5c(c43)C(=O)C(=O)N5Cc3ccc(C(F)(F)F)cc3)cc2)cc1 (stereo not drawn)	0.7 µM	Activity (Saccharomyces cerevisiae [2]): Active; Activity (Saccharomyces cerevisiae [3]): Dose-dependent effect; inhibition (Saccharomyces cerevisiae [4]): Active; inhibition (Saccharomyces cerevisiae [5]): Active; Activity (Saccharomyces cerevisiae [6]): Dose-dependent effect; inhibition (Saccharomyces cerevisiae [7]): Active; Ratio IC50 (Saccharomyces cerevisiae [8]): 165 to 170
Cc1c2c(cc3c1N(Cc1ccc(C(F)(F)F)cc1)C(=O)C3=O)-c1ccccc1OC2CC(=O)O (stereo not drawn)	160 µM	–
COC(=O)CC1Oc2ccccc2-c2ccc3c(c21)C(=O)C(=O)N3C (stereo not drawn)	105 µM	–
COc1ccc(NC(=O)CC2Oc3ccccc3-c3ccc4c(c32)C(=O)C(=O)N4Cc2ccc(C(F)(F)F)cc2)cc1 (stereo not drawn)	5.1 µM	–
Nc1ccc(-c2ccc(NC(=O)CC3Nc4ccccc4-c4ccc5c(c43)C(=O)C(=O)N5Cc3ccc(C(F)(F)F)cc3)cc2)cc1 (stereo not drawn)	1.9 µM	–
O=C(O)CC1Oc2ccccc2-c2ccc3c(c21)/C(=N/O)C(=O)N3Cc1ccc(C(F)(F)F)cc1 (stereo not drawn)	47.7 µM	–
O=C1C(=O)N(Cc2ccc(C(F)(F)F)cc2)c2ccc3c(c21)C(CC(=O)N1CCNCC1)Oc1ccccc1-3 (stereo not drawn)	32.8 µM	–
COC(=O)CC1Oc2ccccc2-c2cc3c(c(C)c21)N(Cc1ccc(C(F)(F)F)cc1)C(=O)C3=O (stereo not drawn)	26.3 µM	–
O=C(CC1Oc2ccccc2-c2ccc3c(c21)C(=O)C(=O)N3Cc1ccc(C(F)(F)F)cc1)Nc1ccc(O)cc1 (stereo not drawn)	6.2 µM	–
CN1C(=O)C(=O)c2c1ccc1c2C(CC(=O)O)Nc2ccccc2-1 (stereo not drawn)	187 µM	–
Cc1cc2c(c3c1N(Cc1ccc(C(F)(F)F)cc1)C(=O)C3=O)C(CC(=O)O)Oc1ccccc1-2 (stereo not drawn)	51.5 µM	–
CN1C(=O)C(=O)c2c1ccc1c2C(CC(=O)Nc2ccccc2)Nc2ccccc2-1 (stereo not drawn)	226 µM	–
O=C(CC1Nc2ccccc2-c2ccc3c(c21)C(=O)C(=O)N3Cc1ccc(C(F)(F)F)cc1)Nc1ccccc1 (stereo not drawn)	4.6 µM	–
COC(=O)CC1Oc2ccccc2-c2cc3c(cc21)N(C)C(=O)C3=O (stereo not drawn)	180 µM	–
NC(=O)CC1Oc2ccccc2-c2ccc3c(c21)C(=O)C(=O)N3Cc1ccc(C(F)(F)F)cc1 (stereo not drawn)	43.9 µM	–
CN1C(=O)C(=O)c2c1ccc1c2C(CC(=O)Nc2ccc(-c3ccc(N)cc3)cc2)Nc2ccccc2-1 (stereo not drawn)	8.4 µM	–

The next lines start with results.

IC50 [1]	SMILES	further results
16 µM	O=C(O)CC1Oc2ccccc2-c2ccc3c(c21)C(=O)C(=O)N3Cc1ccccc1 (stereo not drawn)	–
4.4 µM	O=C1C(=O)N(Cc2ccc(C(F)(F)F)cc2)c2ccc3c(c21)C(CC(=O)N1CCCCC1)Oc1ccccc1-3 (stereo not drawn)	–
12.1 µM	COC(=O)CC1Oc2ccccc2-c2ccc3c(c21)C(=O)C(=O)N3Cc1ccccc1 (stereo not drawn)	–
4.8 µM	O=C(O)CC1Oc2ccccc2-c2ccc3c(c21)C(=O)C(=O)N3Cc1ccc(C(F)(F)F)cc1 (stereo not drawn)	–
36.1 µM	Cc1c2c(cc3c1N(C)C(=O)C3=O)-c1ccccc1OC2CC(=O)Nc1ccccc1 (stereo not drawn)	–
> 300 µM	O=C1C(=O)N(Cc2ccc(C(F)(F)F)cc2)c2ccc3c(c21)C(CC(=O)N1CCOCC1)Oc1ccccc1-3 (stereo not drawn)	–
37.2 µM	COC(=O)CC1Nc2ccccc2-c2ccc3c(c21)C(=O)C(=O)N3Cc1ccc(C(F)(F)F)cc1 (stereo not drawn)	–
15.7 µM	COC(=O)CC1Oc2ccccc2-c2ccc3c(c21)C(=O)C(=O)N3Cc1ccc(C(F)(F)F)cc1 (stereo not drawn)	–
> 300 µM	CNC(=O)CC1Oc2ccccc2-c2cc3c(c(C)c21)N(C)C(=O)C3=O (stereo not drawn)	–
> 300 µM	Cc1c2c(cc3c1N(C)C(=O)C3=O)-c1ccccc1OC2CC(=O)O (stereo not drawn)	–
80 µM	O=C(O)CC1Nc2ccccc2-c2ccc3c(c21)C(=O)C(=O)N3Cc1ccc(C(F)(F)F)cc1 (stereo not drawn)	–
32.3 µM	COC(=O)CC1Oc2ccccc2-c2ccc3c(c21)C(=O)C(=O)N3Cc1ccc(OC)cc1 (stereo not drawn)	–
67 µM	O=C(O)CC1Oc2ccccc2-c2ccc3c(c21)C(F)(F)C(=O)N3Cc1ccc(C(F)(F)F)cc1 (stereo not drawn)	–
